Our source for the IC50 values is patent US7935698B2, “Heteroaryl-hydrazone compounds” (Synta Pharmaceuticals Corporation, priority 2003, dated 2011).

The experiment has as its system IL-12 production. Kind of experiment: Human in vitro assay: inhibition of IL-12 production in stimulated human PBMC or THP-1 cells (sandwich ELISA). The settings on record: primed with IFNγ and stimulated with LPS or SAC, IL-12 by ELISA. The experiment is classed as cell-based. The source says:
The biological activities of the compounds of the invention can be evaluated by a number of cell-based assays. One of such assays can be conducted using cells from human peripheral blood mononuclear cells (PBMC) or human monocytic cell line (THP-1). The cells are stimulated with a combination of human interferon-γ (IFNγ) and lipopolysaccharide or a combination of IFNγ and Staphylococcus aureus Cowan I in the presence of a test compound. The level of inhibition of IL-12 production can be measured by determining the amount of p70 by using a sandwich ELISA assay with anti-human IL-12 antibodies. IC50 of the test compound can then be determined. Specifically, PBMC or THP-1 cells are incubated with the test compound. Cell viability was assessed using the bioreduction of MTS [3-(4,5-dimethylthiazol-2-yl)-5-(3-carboxymethoxyphenyl)-2-(4-sulfophenyl)-2H-tetrazolium] (Promega, Madison, Wis.).
Reagents. Staphylococcus aureus Cowan I (SAC) is obtained from Calbiochem (La Jolla, Calif.), and lipopolysaccharide (LPS, Serratia marscencens) is obtained from Sigma (St. Louis, Mo.). Human and mouse recombinant IFNγ are purchased from Boehringer Mannheim (Mannheim, Germany) and Pharmingen (San Diego, Calif.), respectively.
Human In Vitro Assay. Human PBMC were isolated by centrifugation using Ficoll-Paque (Pharmacia Biotech, Uppsala, Sweden) and prepared in RPMI medium supplemented with 10% fetal calf serum (FCS), 100 U/mL penicillin, and 100 μg/mL streptomycin. PBMC were plated in wells of a 96-well plate at a concentration of 5×10^5 cells/well, and primed by adding IFNγ (30 U/mL) for 22 h and stimulated by adding LPS (1 μg/mL), or by adding IFNγ (100 U/mL) and then stimulated by adding SAC (0.01%). A test heteroaryl hydrazone compound was dissolved in DMSO, and added to wells of the 96-well plate. The final DMSO concentration was adjusted to 0.25% in all cultures, including the compound-free control. Human THP-1 cells were plated in wells, primed by adding IFNγ (100 U/mL) for 22 h and stimulated by adding SAC (0.025%) in the presence of different concentrations of the heteroaryl hydrazone compound. Cell-free supernatants were taken 18 h later for measurement of cytokines. Cell viability was assessed using the bioreduction of MTS. Cell survival was estimated by determining the ratio of the absorbance in compound-treated groups versus compound-free control.
The supernatant was assayed for the amount of IL-12p40, IL-12p70, or IL-10 by using a sandwich ELISA with anti-human antibodies, i.e., a Human IL-12 p40 ELISA kit from R&D Systems (Berkeley, Calif.), and a Human IL-12 p70 or IL-10 ELISA kit from Endogen (Cambridge, Mass.). Assays were based on the manufacturer's instructions.
The biological activities of heteroaryl hydrazone compounds were tested on human PBMC or THP-1 cells.
On the technique in general: In an ELISA, binding on a coated surface is turned into a signal by an enzyme label.
Consider `Cc1cccc(NN=Cc2cc(N3CCOCC3)nc(OCCc3ccccn3)n2)c1` [Compound 1, N-[6-Morpholin-4-yl-2-(2-pyridin-2-yl-ethoxy)-pyrimidin-4-ylmethylene]-N′-m-tolyl-hydrazine], for which the IC50 (commonly the concentration that inhibits the measured activity by half) was found to be 2.2 nM.

Take `Clc1cccc(NN=Cc2cc(N3CCOCC3)nc(OCCc3ccccn3)n2)c1` [Compound 2, N-(3-Chloro-phenyl)-N′-[6-morpholin-4-yl-2-(2-pyridin-2-yl-ethoxy)-pyrimidin-4-ylmethylene]-hydrazine]: the IC50 is 10 nM. In the case of `COc1cccc(NN=Cc2cc(N3CCOCC3)nc(OCCc3ccccn3)n2)c1` [Compound 3, N-(3-Methoxy-phenyl)-N′-[6-morpholin-4-yl-2-(2-pyridin-2-yl-ethoxy)-pyrimidin-4-ylmethylene]-hydrazine], the IC50 stood at 2.2 nM.

`Cc1cccc(NN=Cc2cc(OCCc3ccccn3)nc(N3CCOCC3)n2)c1` [Compound 6, N-[2-Morpholin-4-yl-6-(2-pyridin-2-yl-ethoxy)-pyrimidin-4-ylmethylene]-N′-m-tolyl-hydrazine]: the IC50 turned out to be 40 nM. Regarding `Cc1ccc(C)c(NN=Cc2cc(N3CCOCC3)nc(OCCc3ccccn3)n2)c1` [Compound 4, N-(2,5-Dimethyl-phenyl)-N′-[6-morpholin-4-yl-2-(2-pyridin-2-yl-ethoxy)-pyrimidin-4-ylmethylene]-hydrazine], the IC50 was 6.5 nM.
